{
  "source": "patent US20020032182A1",
  "about": "“Method of treating hypersomnia sleep disturbance or insomnia sleep disturbance that is secondary to another condition” (priority 1997, published 2002)",
  "key": {"severe dysthymia": {"system": "severe dysthymia", "assay": "Patient No. 3 treatment of severe dysthymia", "type": "in vivo, human", "source_text": "Patient No. 3 was a divorced person experiencing chronic suicidal depression for about 15 years. For as long as the patient can remember, they have had episodic, mild-to-moderate mood swings. Approximately 15 years ago, their condition worsened and they were depressed almost daily. Their thoughts were slowed down, they felt intensely sad, guilty, worthless, confused, and desperate. Over a period of approximately two years they underwent therapy with a social worker and psychotherapy with a psychiatrist, with little positive results. No pharmaco-therapy was involved in either of these treatments. Initially, Patient No. 3 met with the inventor and identified a childhood source as a partial cause of their depression, low self-esteem and dysfunctional thinking. Although they appreciated the insights gained through the psychoanalysis/psychotherapy with the inventor, their depression persisted unabated. They were rejected by their girlfriend and became frighteningly suicidal. […] Within six months they developed a tolerance to the drug and it was increased to 100 mg per day with no effect. They stopped […]® and started bupropion 100 mg b.i.d and lithium 300 mg t.i.d. Bupropion is an aminoketone antidepressant, and lithium is a metal used to treat bipolar disorder. […] Their condition was desperate and life-threatening."}, "[1]": {"system": "pre-menstrual syndrome (PMS)", "details": "women with PMS treated with fluoxetine; cited from earlier work"}, "[2]": {"system": "pre-menstrual syndrome (PMS) and major depression", "assay": "Patient No. 4 treatment of major depression and self-rating of pre-menstrual syndrome symptoms", "type": "in vivo, human", "method": "Patient No. 4 was a person who has struggled to overcome a wide variety of psychiatric symptoms, two of which are depression and pre-menstrual syndrome (PMS). After several treatments, it was determined that a combination of paroxetine 20 mg t.i.d. and lithium 300 mg t.i.d. diminished their symptoms of obsessive-compulsive disorder, depression, hypomania and PMS.\nIn FIGS. 6-8 the abbreviations for each symptom on the graphs may be translated as follows:\nPatient No. 4's formal diagnoses were Multiple Personality Disorder, Obsessive-Compulsive Disorder, Major Depression Disorder, Alcoholism (recovering), and Pre-Menstrual Syndrome (PMS).\nSet forth below in Table 1 are the research criteria set forth in the Diagnostic and Statistical Manual of Mental Disorders, Forth edition, published by the American Psychiatric Association for Pre-Menstrual Dysphoric Disorder, or Pre-Menstrual Syndrome.\nThey described a typical menses as follows. They were usually moderately to severely depressed for at least two days during the week before their menses. They had sudden mood swings. One moment they would be crying and the next they would be laughing wildly, or they would have sudden outbursts of anger. They were markedly tense and would fidget constantly. They tired easily and lacked energy. They could barely drag themself out of bed each morning. They craved carbohydrates and often would eat several doughnuts, whole cakes, or boxes of cookies. They slept little, and for two or three nights they would have night sweats that drenched their bed. They also experienced back cramps, bloating and pains in their joints and muscles. They had trouble concentrating and was unable to do life's simplest chores. Their PMS interfered with their ability to function. They lost interest in their favorite hobby, reading."}, "[3]": {"system": "depression in the form of dysthymia", "assay": "Patient No. 1 weekly blinded component study with Beck Scale and SCL-90 Scale self-rating", "type": "in vivo, human", "details": "for patient-reported symptoms during week: component taken along with sertraline 125 mg qd", "method": "Patient No. 1 was a person who, after a series of psychoanalysis/psychotherapy sessions, was diagnosed as suffering from depression in the form of dysthymia. Patient No. 1 experienced a chronic low mood with markedly diminished interest and pleasure in all activities including work, eating, and sexual relations.\nInitially, Patient No. 1 was treated only with the known antidepressant sertraline (sold under the registered trademark ZOLOFT®). Sertraline is a selective serotonin reuptake inhibitor. Sertraline was administered in amounts from 50 to 150 mg qd (per day); the ideal dose for this patient was ultimately determined to be 125 mg qd (per day).\nIndependent of the sertraline treatments, the patient began taking a vitamin and mineral supplement that included a series of components. […] As such improvement was unexpected, a study of the components of the mineral preparation was undertaken. During this study, Patient No. 1 stopped taking the composite preparation.\nIn this study, Patient No. 1 took one component of the preparation at a time according to a schedule of one pill a day for five days, Monday through Friday. At the end of each week, they filled out two self-rating scales that are used in the diagnosis and monitoring of depression. These scales are the Beck Scale and the SCL-90 Scale, both of which are well known in the field of psychiatry and psychotherapy. Patient No. 1 continued to take sertraline at 125 mg per day. During the study, Patient No. 1 was not informed of what they were taking.\nThe series of events described in the above example are more fully set forth in the graphs in FIGS. 1 and 2. FIG. 1 is a bar graph displaying the scores on the Beck Scale, a self-rating scale for depression, at the end of each weekly treatment.\nFIG. 2 is a bar graph of the total score on the SCL-90 Scale. The SCL-90 is composed of 90 questions. It is designed to measure symptoms of somatization, obsessive-compulsive behavior, interpersonal sensitivity, depression, anxiety, hostility, phobic anxiety, paranoid ideation, and psychoticism. It is noted that the grand total of scores on each Friday closely parallels the results of the Beck Scale."}, "Plasma chromium level": {"assay": "Plasma chromium level", "type": "in vivo, human", "method": "Most preferred dosage ranges of chromium are those doses sufficient to deliver from about 4.5 to about 6 μg of chromium per kilogram (kg) of body weight. This dosage range is generally several fold greater than that contained in most commercially available multi-vitamin and mineral preparations. This amount results in a plasma chromium level between 0.9 μg/liter to 2.1 μg/liter. The plasma level will vary depending on the level of exercise, i.e., the more one exercises, the more chromium is required to maintain plasma levels.\nCommercially available tubes for the collection of blood can contain significant amounts of chromium. To avoid contamination, plasma levels of chromium should be determined from blood collected in heparinized or EDTA tubes."}, "[4]": {"system": "pre-menstrual syndrome (PMS)", "assay": "Patient No. 2 pre-menstrual syndrome observation", "type": "in vivo, human", "details": "chromium 200 μg per day", "method": "They said that they had less carbohydrate craving during the week before, that they were less irritable, that their dysphoria was relieved, and that their usual cramps were non-existent. Thus, an aspect of the present invention includes the treatment of pre-menstrual syndrome (PMS), or dysmenorrhea (problematic and/or painful menses), comprising administering chromium in a preferred dose of 200 μg per day to a patient in need thereof."}, "alcohol craving": {"system": "alcohol craving", "assay": "Patient No. 1 alcohol craving while taking chromium picolinate alone", "type": "in vivo, human", "source_text": "During the later stages of the study described above, when Patient No. 1 was taking chromium picolinate alone, they also noticed a change in their ability to tolerate alcohol. Both of their parents were alcoholics so they guarded carefully against this outcome by drinking infrequently.\nDespite this effort, […] often experienced intense cravings for alcohol. Prior to […] treatment with chromium, when […] consumed alcohol, […] could only drink it by gulping it. […] experienced rapid intoxication, unpleasant feelings, and a severe hangover the next day. […] […] also observed that […] could drink in moderation, without having a severe hangover the next day."}, "dysthymia": {"system": "dysthymia", "assay": "Patient No. 2 weekly component study with Beck Scale and SCL-90 Scale", "type": "in vivo, human", "method": "Patient No. 2 was a single person. They are the child of Patient No. 1. They complained of weight gain, hyperphagia, hypersomnia, loss of interest in sex, irritability and an inability to concentrate. They stated that they had been seeing psychotherapists since they were […], but had no success in dealing with their depression. They were also diagnosed as having dysthymia.\nThey had taken sertraline in the amount of 50 mg qd with little help. This dosage was increased to 100 mg qd which proceeded for a period of five weeks. […] They were not as weepy and their outlook was less negative. Their interest in sex was increased. Their appetite remained the same.\nPatient No. 2 then began a similar study as that described above for Patient No. 1. For the first week, they took one vitamin C tablet daily along with 100 mg of sertraline. Their depression appeared to worsen as reflected by their grand total Beck score of +12 and their SCL-90 of +4 as more fully portrayed on the FIG. 4.\nFor Patient No. 2, FIG. 4 presents Patient No. 2's Beck Scale total scores, and FIG. 5 presents a graph of the four subscales of somatization, obsessive-compulsive, depression, and anxiety on the SCL-90 Scale."}, "[5]": {"system": "depression in the form of dysthymia", "assay": "Patient No. 1 weekly blinded component study with Beck Scale and SCL-90 Scale self-rating", "type": "in vivo, human"}, "[6]": {"details": "sertraline 100 mg with one vitamin C tablet daily, first week"}, "[7]": {"details": "sertraline only, 50 to 150 mg qd"}},
  "note": "Entries after “also recorded” stand apart in the source; their conditions may differ. Where a name gives a salt, the structure may show the parent alone.",
  "data": [
    {"compound": "CC(NC(C)(C)C)C(=O)c1cccc(Cl)c1", "note": "(centres unmarked) [bupropion]", "values": [
      {"measurement": "adverse effect leading to discontinuation", "setting": "severe dysthymia; bupropion 100 mg b.i.d. with lithium 300 mg t.i.d.", "value": "developed involuntary muscle twitches"}
    ]},
    {"compound": "CNCCC(Oc1ccc(C(F)(F)F)cc1)c1ccccc1", "note": "(centres unmarked) [fluoxetine]", "values": [
      {"measurement": "women suffering from PMS without a positive response", "setting": "[1]", "value": "~40", "unit": "%"}
    ]},
    {"compound": "Fc1ccc([C@@H]2CCNC[C@H]2COc2ccc3c(c2)OCO3)cc1", "note": "[paroxetine]", "values": [
      {"measurement": "change in severity of PMS symptoms", "setting": "[2]; paroxetine", "value": "reduced the severity of their symptoms of PMS from severe to moderately severe"},
      {"measurement": "patient rating of PMS", "setting": "[2]; paroxetine 20 mg t.i.d. and lithium 300 mg t.i.d.", "value": "moderate to severe and barely tolerable"},
      {"measurement": "depression", "setting": "[2]; resumed lithium 300 mg t.i.d. and paroxetine 40 mg per day", "value": "their depression was refractory"}
    ]},
    {"compound": "[Se]", "note": "[selenium]", "values": [
      {"measurement": "patient-reported symptoms during week", "setting": "[3]", "value": "felt agitated"}
    ]},
    {"compound": "CN(C)CCC=C1c2ccccc2CCc2ccccc21", "note": "[ELAVIL, amitriptyline HCl]", "values": [
      {"measurement": "effect on depression", "setting": "severe dysthymia; 50 mg per day", "value": "helped them sleep"},
      {"measurement": "effect on depression", "setting": "severe dysthymia; increased to 100 mg per day after tolerance", "value": "no effect"}
    ]},
    {"compound": "chromium picolinate", "values": [
      {"measurement": "plasma chromium level", "setting": "Plasma chromium level; Patient No. 1, 400 μg chromium per day as chromium picolinate, sertraline discontinued", "value": 0.9, "unit": "µg/L"},
      {"measurement": "plasma chromium", "setting": "Plasma chromium level; Patient No. 2, four days after resuming chromium picolinate 200 μg per day", "value": 0.8, "unit": "µg/L"},
      {"measurement": "overall response", "setting": "severe dysthymia; chromium 200 μg twice daily, 400 μg per day", "value": "marked improvement"},
      {"measurement": "pre-menstrual syndrome / menses symptoms", "setting": "[4]", "value": "their menses was less problematic"},
      {"measurement": "alcohol cravings", "setting": "alcohol craving", "value": "significantly diminished alcohol cravings"},
      {"measurement": "SCL-90 score", "setting": "dysthymia; 200 μg chromium per day with sertraline 100 mg per day, second week", "value": "definite improvement"},
      {"measurement": "response after resuming treatment", "setting": "dysthymia; chromium picolinate 200 μg per day", "value": "Within two days they felt better and had no symptoms"},
      {"measurement": "patient-reported symptoms during week", "setting": "dysthymia; component taken along with sertraline 100 mg per day", "value": "their appetite was less"},
      {"measurement": "Beck Scale estimated via telephone interview", "setting": "dysthymia; resumed chromium picolinate 200 μg per day, sertraline continued", "value": "+2"},
      {"measurement": "signs or symptoms of PMS", "setting": "[2]; chromium 200 μg b.i.d. with paroxetine 20 mg t.i.d. and lithium 300 mg t.i.d.", "value": "completely without signs or symptoms of PMS, except for breast swelling"},
      {"measurement": "potential adverse side effect", "setting": "[3]; 200 μg chromium from chromium picolinate taken late in the day", "value": "their sleep was disturbed"},
      {"measurement": "patient-reported symptoms during week", "setting": "[3]", "value": "dramatic, certain and immediate relief of symptoms"},
      {"measurement": "total Beck score at the end of the week", "setting": "[3]; one pill of component a day for five days along with sertraline 125 mg qd (chromium 200 μg per day)", "value": 0},
      {"measurement": "patient-reported condition on chromium alone", "setting": "[5]; 400 μg chromium per day (200 μg b.i.d.), sertraline discontinued", "value": "their sleep was much improved; also recorded: felt the best they had felt in a decade"},
      {"measurement": "time to improvement after dose increase", "setting": "[5]; crisis period at work, 200 μg chromium t.i.d.", "value": "Within an hour, they noticed immediate improvement"}
    ]},
    {"compound": "[Cr]", "note": "[chromium]", "values": [
      {"measurement": "time to relief of symptoms", "setting": "severe dysthymia; chromium picolinate 200 μg b.i.d. with sertraline 100 mg qd", "value": "relief of symptoms within four to five days"}
    ]},
    {"compound": "CN[C@H]1CC[C@@H](c2ccc(Cl)c(Cl)c2)c2ccccc21", "note": "[sertraline, reference compound]", "values": [
      {"measurement": "effect on depression", "setting": "dysthymia; sertraline 50 mg qd", "value": "little help"},
      {"measurement": "effect on depression", "setting": "dysthymia; sertraline 100 mg qd for five weeks", "value": "still symptomatic of depression, but felt better"},
      {"measurement": "SCL-90 score", "setting": "dysthymia; [6]", "value": "+4"},
      {"measurement": "grand total Beck score", "setting": "dysthymia; [6]", "value": "+12"},
      {"measurement": "total Beck score", "setting": "[3]; sertraline 125 mg each day for five days with vitamin C placebo", "value": "+10"},
      {"measurement": "symptoms in week prior to study", "setting": "[3]; sertraline 125 mg qd alone", "value": "loss of energy, disturbed sleep, and awaking tired"},
      {"measurement": "relief of symptoms of dysthymia", "setting": "[3]; [7]", "value": "provided some relief of the symptoms of dysthymia"},
      {"measurement": "side effects", "setting": "[3]; [7]", "value": "made the patient sluggish in their daily activities and made their thinking cloudy, or fuzzy"}
    ]}
  ]
}
